Data on 15 molecules can be found in patent US11912719B2, “Substituted isoquinolines as rock kinase inhibitors” (Cervello Therapeutics LLC, priority 2018, dated 2024).

Read-outs that look alike come from different tables or passages of the source.

As usually defined, the IC50 is the concentration needed to halve the response being measured.

What all share (type): biochemical
Assay [1] concerns the target T1, human ROCK1 catalytic domain (Homo sapiens, UniProt Q13464).
T1 construct: GST; purchased Carna BioSciences 01-109
Description: fluorescence coupling (TR-FRET) enzymatic assay, ROCK1. Here is the method:
(§1) Briefly, compounds of the present invention were solubilized in DMSO and a series of 12, three-fold serial dilutions were made for each compound in 2.5% DMSO. The initial starting concentration for the serial dilutions of each compound was 10 μM or 100 μM. Control samples lacking compound, ROCK enzyme or ATP also were prepared and processed in parallel with compound test samples.
The reaction mixtures were incubated at room temperature for one hour. After one hour, the reaction was stopped by the addition of a 10 solution of an Europium-labelled phospho-CREB (Ser133) antibody (Perkin Elmer, Catalog #TRF0200) in LANCE buffer supplemented with 20 mM EDTA. The stopped reaction mixtures were incubated at room temperature for 90 minutes. […] The ICso value for each compound was determined from each dose-response curve using GraphPad Prism 7 software with a sigmodial dose response.

Assay [2] deals with T2, human ROCK2 enzyme kinase domain (Homo sapiens, UniProt O75116).
T2 construct: GST; purchased Carna BioSciences 01-110
T2 sequence (O75116 1-553): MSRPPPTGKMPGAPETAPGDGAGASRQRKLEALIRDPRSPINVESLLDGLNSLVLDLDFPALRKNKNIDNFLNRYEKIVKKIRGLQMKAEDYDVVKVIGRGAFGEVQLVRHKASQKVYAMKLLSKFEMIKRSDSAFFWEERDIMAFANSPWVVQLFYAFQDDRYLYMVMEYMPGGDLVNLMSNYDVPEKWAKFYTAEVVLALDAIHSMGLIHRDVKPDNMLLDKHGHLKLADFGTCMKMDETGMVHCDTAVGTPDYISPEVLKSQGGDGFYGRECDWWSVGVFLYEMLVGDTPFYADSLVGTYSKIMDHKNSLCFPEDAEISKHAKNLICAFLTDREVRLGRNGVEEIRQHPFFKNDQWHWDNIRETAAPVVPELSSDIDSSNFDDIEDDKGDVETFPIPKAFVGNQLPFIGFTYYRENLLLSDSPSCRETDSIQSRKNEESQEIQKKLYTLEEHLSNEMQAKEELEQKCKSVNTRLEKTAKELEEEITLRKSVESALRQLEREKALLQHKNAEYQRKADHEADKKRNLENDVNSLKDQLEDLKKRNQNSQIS
Briefly: fluorescence coupling (TR-FRET) enzymatic assay, ROCK2. To be noted: 4 nM enzyme, 50 nM Ulight-CREBTide, one hour room temperature. The protocol:
(§2) Dose-response curves for compounds of the present invention were determined using a fluorescence coupling enzymatic assay using purified C-terminal truncated human ROCK1 catalytic domain (amino acids 1-477 of accession number NP_005397.1) fused to GST (Carna BioSciences, Catalog #01-109) and purified C-terminal truncated human ROCK2 enzyme kinase domain (amino acids 1-553 of accession number NP_004841.2) fused to GST BioSciences, Catalog #01-110). In addition, full length cGMP-dependent protein kinase 1 (PKG or PRKG1; amino acids 1-686 of accession number NP_006249.1) fused to GST (Carna BioSciences, Catalog #01-142), full length PKACα (PRKACA; amino acids 1-351 of accession number NP_002721.1) fused to GST (Carna BioSciences, Catalog #01-127), and C-terminal truncated human AKT1 catalytic domain (amino acids 104-480 of accession number NP_005154.1) fused to GST Biosciences, Catalog #01-101) were used as a control to measure any non-desired off-target kinase activity.
as §1
(§3) A 4 μL aliquot of each serial dilution of test compound diluted in H2O with 2.5% DMSO was added to a well containing 4 μL of 10 nM purified N-truncated ROCK1 (4 nM final concentration), 10 nM purified N-truncated ROCK2 enzyme (4 nM final concentration), 1.25 nM AKT1 (0.5 nM final concentration), 25 pM PKACA (10 pM final concentration) or 20 nM PKG (8 nM final concentration), in reaction buffer containing 50 mM Hepes, pH 7.5, 1 mM EGTA, 10 mM MgCl2, 2 mM DTT, and 0.01% Tween 20 (final concentration). To initiate the enzymatic reaction, 2 μL of a solution was added to each well to provide a final concentration of 50 nM Ulight-CREBTide peptide substrate (Perkin Elmer, Catalog #TRF0107) and 4 μM ATP for ROCK1 and AKT1 assays, […] for ROCK2 assays and 30 μM ATP for PKG assays, or 1 μM ATP for PKACA assays. The reaction mixtures were incubated at room temperature for one hour. After one hour, the reaction was stopped by the addition of a 10 solution of an Europium-labelled phospho-CREB (Ser133) antibody (Perkin Elmer, Catalog #TRF0200) in LANCE buffer supplemented with 20 mM EDTA. The stopped reaction mixtures were incubated at room temperature for 90 minutes. The TR-FRET 665/620 ratios were determined using a Clariostar monochromator plate reader instrument (BMG LabTech) in accordance with the manufacturer's instructions. The ICso value for each compound was determined from each dose-response curve using GraphPad Prism 7 software with a sigmodial dose response. Key: A is IC50≤100 nM; B is 100 nM<IC50<1000 nM; C is 1,000<IC50≤10,000 nM; D is IC50>10,000 nM
(In general: TR-FRET usually uses a lanthanide donor and a delayed reading to cut background.)

In a further assay the target is T3, PKACα (PRKACA) (Homo sapiens, UniProt P17612).
T3 construct: GST; purchased Carna BioSciences 01-127
Description: fluorescence coupling (TR-FRET) enzymatic assay, PKACA off-target control. The following applies: 10 pM enzyme, 1 μM ATP, 50 nM Ulight-CREBTide, one hour room temperature. Here is the method:
as §2, §1, §3

Assay [3] deals with T4, human AKT1 catalytic domain (Homo sapiens, UniProt P31749).
T4 construct: GST; purchased Carna BioSciences 01-101
T4 sequence (P31749 104-480): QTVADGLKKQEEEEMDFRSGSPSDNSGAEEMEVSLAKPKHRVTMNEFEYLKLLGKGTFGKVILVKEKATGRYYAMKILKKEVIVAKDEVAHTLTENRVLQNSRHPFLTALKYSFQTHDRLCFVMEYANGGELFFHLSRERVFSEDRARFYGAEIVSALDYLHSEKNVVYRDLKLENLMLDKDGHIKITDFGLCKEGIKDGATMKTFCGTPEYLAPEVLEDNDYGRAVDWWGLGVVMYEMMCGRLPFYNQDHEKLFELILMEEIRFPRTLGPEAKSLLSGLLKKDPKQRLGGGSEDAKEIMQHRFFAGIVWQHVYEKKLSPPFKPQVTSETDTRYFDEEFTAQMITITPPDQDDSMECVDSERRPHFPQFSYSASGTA
Briefly: fluorescence coupling (TR-FRET) enzymatic assay, AKT1 off-target control. To be noted: 0.5 nM enzyme, 4 μM ATP, 50 nM Ulight-CREBTide, one hour room temperature. Here is the method: as §2, §1, §3

The target of assay [4] is T5, cGMP-dependent protein kinase 1 (PKG or PRKG1) (Homo sapiens, UniProt Q13976).
T5 construct: GST; purchased Carna BioSciences 01-142
T5 sequence (Q13976 1-686 isoform Q13976-2): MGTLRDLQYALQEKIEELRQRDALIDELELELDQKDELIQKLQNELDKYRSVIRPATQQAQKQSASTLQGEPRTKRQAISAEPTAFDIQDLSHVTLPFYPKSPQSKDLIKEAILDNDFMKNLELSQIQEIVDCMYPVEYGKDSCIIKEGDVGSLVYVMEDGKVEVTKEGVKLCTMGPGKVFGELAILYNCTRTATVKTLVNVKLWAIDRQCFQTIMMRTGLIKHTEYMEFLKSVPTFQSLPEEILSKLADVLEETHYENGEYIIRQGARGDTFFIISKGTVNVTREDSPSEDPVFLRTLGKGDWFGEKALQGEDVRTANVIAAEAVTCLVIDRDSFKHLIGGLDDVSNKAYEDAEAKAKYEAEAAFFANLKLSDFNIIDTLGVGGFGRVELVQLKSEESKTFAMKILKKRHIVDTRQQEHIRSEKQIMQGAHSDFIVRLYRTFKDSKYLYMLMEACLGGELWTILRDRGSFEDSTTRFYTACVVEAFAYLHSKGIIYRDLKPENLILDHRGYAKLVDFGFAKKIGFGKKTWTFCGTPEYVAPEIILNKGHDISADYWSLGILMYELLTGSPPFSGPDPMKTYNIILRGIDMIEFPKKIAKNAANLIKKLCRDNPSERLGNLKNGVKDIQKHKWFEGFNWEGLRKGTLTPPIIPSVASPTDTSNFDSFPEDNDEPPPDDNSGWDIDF
Description: fluorescence coupling (TR-FRET) enzymatic assay, PKG off-target control. To be noted: 8 nM enzyme, 30 μM ATP, 50 nM Ulight-CREBTide, one hour room temperature. Here is the method: as §2, §1, §3

Where [5] appears, read: 4 nM enzyme, 4 μM ATP, 50 nM Ulight-CREBTide, one hour room temperature, read-out: ROCK1 IC50.

T1 sequence (Q13464 1-477): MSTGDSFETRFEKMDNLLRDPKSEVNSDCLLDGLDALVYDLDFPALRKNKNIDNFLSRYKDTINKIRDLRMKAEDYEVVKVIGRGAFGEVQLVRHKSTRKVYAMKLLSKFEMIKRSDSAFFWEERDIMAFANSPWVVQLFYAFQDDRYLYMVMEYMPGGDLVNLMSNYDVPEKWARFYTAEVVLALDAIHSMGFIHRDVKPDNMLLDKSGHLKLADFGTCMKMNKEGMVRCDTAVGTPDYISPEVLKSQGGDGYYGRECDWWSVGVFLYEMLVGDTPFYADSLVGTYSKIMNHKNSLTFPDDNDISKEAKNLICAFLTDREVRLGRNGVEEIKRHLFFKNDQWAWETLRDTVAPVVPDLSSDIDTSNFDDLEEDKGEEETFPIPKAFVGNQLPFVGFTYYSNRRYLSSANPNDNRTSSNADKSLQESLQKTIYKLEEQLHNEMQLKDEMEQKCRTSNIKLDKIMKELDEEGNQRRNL

Take `Cc1cccc2c1CCN2S(=O)(=O)c1cccc2c(=O)[nH]ccc12` [Example 1, 5-((4-Methylindolin-1-yl)sulfonyl)isoquinolin-1 (2H)-one]: the IC50 in assay [1] (setting [5]) is 1 to 10 µM; in assay [2] it was 1 to 10 µM; against PKACα (PRKACA), greater than 10 µM; in assay [3], greater than 10 µM; in assay [4] it was greater than 10 µM.

`O=c1[nH]ccc2c(S(=O)(=O)N3CCc4cc(O)ccc43)cccc12` [Example 2, 5-((5-Hydroxyindolin-1-yl)sulfonyl)isoquinolin-1 (2H)-one]: the IC50 (in assay [1] (setting [5]); in assay [2]; against PKACα (PRKACA); in assay [3]; in assay [4]) was greater than 10 µM in each case.

For `O=c1[nH]ccc2c(S(=O)(=O)N3CCc4ccccc43)cccc12` [Example 3, 5-(Indolin-1-ylsulfonyl)isoquinolin-1 (2H)-one], the IC50 in assay [1] (setting [5]) is 1 to 10 µM; in assay [2], 1 to 10 µM; against PKACα (PRKACA) it was greater than 10 µM; in assay [3], greater than 10 µM; in assay [4] it was greater than 10 µM.

On to `O=c1[nH]ccc2c(S(=O)(=O)N3CCc4ccc(Cl)cc43)cccc12` [Example 4, 5-((6-Chloroindolin-1-yl)sulfonyl)isoquinolin-1 (2H)-one], for which the IC50 in assay [1] (setting [5]) was 0.1 to 1 µM; in assay [2], 0.1 to 1 µM; on PKACα (PRKACA), greater than 10 µM; in assay [3] it was greater than 10 µM; in assay [4], greater than 10 µM.

Take `O=c1[nH]ccc2c(S(=O)(=O)N3CCc4ccc(F)cc43)cccc12` [Example 5, 5-((6-Fluoroindolin-1-yl)sulfonyl)isoquinolin-1 (2H)-one]: the IC50 in assay [1] (setting [5]) was 1 to 10 µM; in assay [2] it was 1 to 10 µM; against PKACα (PRKACA), greater than 10 µM; in assay [3], greater than 10 µM; in assay [4], greater than 10 µM.

Consider `Cc1ccc2c(c1)N(S(=O)(=O)c1cccc3c(=O)[nH]ccc13)CC2` [Example 6, 5-((6-Methylindolin-1-yl)sulfonyl)isoquinolin-1 (2H)-one], for which the IC50 in assay [1] (setting [5]) was 1 to 10 µM; in assay [2] it was 0.1 to 1 µM; on PKACα (PRKACA) it was greater than 10 µM; in assay [3], greater than 10 µM; in assay [4], greater than 10 µM.

As for `O=c1[nH]ccc2c(S(=O)(=O)N3CCc4c(CO)cccc43)cccc12` [Example 7, 5-((4-(Hydroxymethyl)indolin-1-yl)sulfonyl)isoquinolin-1 (2H)-one], the IC50 in assay [1] is 1 to 10 µM; in assay [2], 1 to 10 µM; against PKACα (PRKACA) it was greater than 10 µM; in assay [3], greater than 10 µM; in assay [4], greater than 10 µM.

`O=c1[nH]ccc2c(S(=O)(=O)N3CCc4c3cccc4C(F)(F)F)cccc12` [Example 8, 5-((4-(Trifluoromethyl)indolin-1-yl)sulfonyl)isoquinolin-1 (2H)-one]: the IC50 (in assay [1] (setting [5]); in assay [2]; on PKACα (PRKACA); in assay [3]; in assay [4]) was greater than 10 µM in each case.

Take `O=c1[nH]ccc2c(S(=O)(=O)N3CCc4c(C5CC5)cccc43)cccc12` [Example 9, 5-((4-Cyclopropylindolin-1-yl)sulfonyl)isoquinolin-1 (2H)-one]: the IC50 (in assay [1] (setting [5]); in assay [2]; against PKACα (PRKACA); in assay [3]; in assay [4]) was greater than 10 µM in each case.

For the molecule `CCc1cccc2c1CCN2S(=O)(=O)c1cccc2c(=O)[nH]ccc12` [Example 10, 5-((4-ethylindolin-1-yl)sulfonyl)isoquinolin-1 (2H)-one], the IC50 (in assay [1] (setting [5]); in assay [2]; at PKACα (PRKACA); in assay [3]; in assay [4]) was greater than 10 µM each time.

With `CC(O)c1cccc2c1CCN2S(=O)(=O)c1cccc2c(=O)[nH]ccc12` (stereo not drawn) [Example 11, 5-((4-(1-Hydroxyethyl)indolin-1-yl)sulfonyl)isoquinolin-1 (2H)-one], the IC50 in assay [1] (setting [5]) was 1 to 10 µM; in assay [2], 1 to 10 µM; at PKACα (PRKACA), greater than 10 µM; in assay [3], greater than 10 µM; in assay [4], greater than 10 µM.

With `CC1(C)CN(S(=O)(=O)c2cccc3c(=O)[nH]ccc23)c2ccccc21` [Example 12, 5-((3,3-Dimethylindolin-1-yl)sulfonyl)isoquinolin-1 (2H)-one], the IC50 (in assay [1] (setting [5]); in assay [2]; against PKACα (PRKACA); in assay [3]; in assay [4]) was greater than 10 µM each time.

Regarding `CC1CN(S(=O)(=O)c2cccc3c(=O)[nH]ccc23)c2ccccc21` (stereo not drawn) [Example 13, 5-((3-Methylindolin-1-yl)sulfonyl)isoquinolin-1 (2H)-one], the IC50 (in assay [1] (setting [5]); in assay [2]; against PKACα (PRKACA); in assay [3]; in assay [4]) was greater than 10 µM throughout.

On to `CC(C)c1cccc2c1CCN2S(=O)(=O)c1cccc2c(=O)[nH]ccc12` [Example 14, 5-((4-Isopropylindolin-1-yl)sulfonyl)isoquinolin-1 (2H)-one], for which the IC50 (in assay [1] (setting [5]); in assay [2]; at PKACα (PRKACA); in assay [3]; in assay [4]) was greater than 10 µM throughout.

In the case of `N#Cc1ccc2c(c1)N(S(=O)(=O)c1cccc3c(=O)[nH]ccc13)CC2` [Example 15, 1-((1-Oxo-1,2-dihydroisoquinolin-5-yl)sulfonyl)indoline-6-carbonitrile], the IC50 is 0.1 to 1 µM in assay [1] (setting [5]); less than 0.1 µM in assay [2]; greater than 10 µM at PKACα (PRKACA); greater than 10 µM in assay [3]; greater than 10 µM in assay [4].
